Laboratory results: patent US10414740B2, “Glutaminase inhibitors and method of use” (Agios Pharmaceuticals, Inc., priority 2012, dated 2019)

target: T1, glutaminase (GAC) (Homo sapiens, UniProt O94925); assay: glutaminase coupled endpoint assay (Example A); type: biochemical; details: inhibition of glutaminase; IC50 tested in an assay of Example A or Example B
T1 sequence (O94925 55-598 isoform O94925-3 limits assumed): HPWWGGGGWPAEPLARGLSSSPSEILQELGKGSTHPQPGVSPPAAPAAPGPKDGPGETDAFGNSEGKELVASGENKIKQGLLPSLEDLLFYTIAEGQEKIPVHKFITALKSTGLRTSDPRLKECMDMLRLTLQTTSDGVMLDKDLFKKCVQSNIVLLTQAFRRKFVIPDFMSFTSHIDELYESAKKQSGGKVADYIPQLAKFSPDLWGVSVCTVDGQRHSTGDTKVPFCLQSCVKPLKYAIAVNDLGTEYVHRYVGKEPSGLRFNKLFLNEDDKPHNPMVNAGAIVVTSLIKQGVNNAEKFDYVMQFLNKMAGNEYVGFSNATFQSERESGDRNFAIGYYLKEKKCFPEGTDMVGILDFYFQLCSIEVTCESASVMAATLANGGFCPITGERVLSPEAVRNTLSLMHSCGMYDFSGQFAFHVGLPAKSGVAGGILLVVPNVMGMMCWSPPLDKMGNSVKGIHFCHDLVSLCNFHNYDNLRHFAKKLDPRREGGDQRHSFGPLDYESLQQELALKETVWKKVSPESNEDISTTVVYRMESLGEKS
Protocol: In this example, the enzymatic activity of glutaminase is measured through a coupled endpoint assay. […] The glutamate produced is converted to 2-OG by a kinetic excess of glutamate dehydrogenase. […] However, a kinetic excess of the third coupling enzyme, diaphorase, recycles NAD from NADH to keep the NAD concentration constant during the timecourse of the assay. Diaphorase, also supplied in kinetic excess, oxidizes NADH produced by GDH back to NAD with the concomitant reduction of rezasurin to the highly fluorescent resorufin. […] A reduction in the signal indicates inhibition of some component of the coupled enzyme system. Prospective hits are counterscreened against GDH/diaphorase alone to remove hits to the coupling enzyme system in a second assay.
2. […] Add 1 μl a compound in 100% DMSO 2. Add 40 μl of Enzyme Mix and incubate for 60 minute at room temperature 3. Add 10 μl of Substrate Mix to start reaction 4.

| Structure (SMILES) | IC50 [nM] |
| --- | --- |
| O=C(Cc1ccccn1)Nc1nnc(CCCCCc2nnc(NC(=O)Cc3ccccn3)s2)s1 [Compound 11, N,N′-(5,5′-(pentane-1,5-diyl)bis(1,3,4-thiadiazole-5,2-diyl))bis(2-(pyridin-2-yl)acetamide)] | 100 to 500 |
| O=C(CC1NC(=O)NC1=O)Nc1nnc(CCCCc2nnc(NC(=O)CC3NC(=O)NC3=O)s2)s1 (stereo not drawn) [Compound 89, N,N′-(5,5′-(butane-1,4-diyl)bis(1,3,4-thiadiazole-5,2-diyl))bis(2-(2,5-dioxoimidazolidin-4-yl)acetamide)] | 100 to 500 |
| O=C(Cc1ccccn1)Nc1nnc(CCS(=O)(=O)CCc2nnc(NC(=O)Cc3ccccn3)s2)s1 [Compound 13, N,N′-(5,5′-(sulfonylbis(ethane-2,1-diyl))bis(1,3,4-thiadiazole-5,2-diyl))bis(2-(pyridin-2-yl)acetamide)] | < 100 |
| O=C(Cc1nn[nH]n1)Nc1nnc(CCCCc2nnc(NC(=O)Cc3nn[nH]n3)s2)s1 [Compound 71, N,N′-(5,5′-(butane-1,4-diyl)bis(1,3,4-thiadiazole-5,2-diyl))bis(2-(1H-tetrazol-5-yl)acetamide)] | 100 to 500 |
| CC(=O)NCCC(=O)Nc1nnc(CCCCc2nnc(NC(=O)CCNC(C)=O)s2)s1 [Compound 68] | 1000 to 10000 |
| NCCOc1ccc(CC(=O)Nc2nnc(CCS(=O)(=O)CCc3nnc(NC(=O)Cc4ccccc4)s3)s2)cc1 [Compound 29, 2-(4-(2-aminoethoxy)phenyl)-N-(5-(2-((2-(5-(2-phenylacetamido)-1,3,4-thiadiazol-2-yl)ethyl)sulfonyl)ethyl)-1,3,4-thiadiazol-2-yl)acetamide] | < 100 |
| O=C(Cc1ccccc1)Nc1cc(CCCCc2cc(NC(=O)Cc3ccccc3)on2)no1 [Compound 99] | 1000 to 10000 |
| Cc1ccc(OCC(=O)Nc2nnc(CCCCc3nnc(NC(=O)COc4ccc(C)cc4C)s3)s2)c(C)c1 [Compound 65] | 1000 to 10000 |
| c1ccc(CCNc2nnc(CCSCCc3nnc(NCCc4ccccc4)s3)s2)cc1 [Compound 9, 5,5′-(thiobis(ethane-2,1-diyl))bis(N-phenethyl-1,3,4-thiadiazol-2-amine)] | 1000 to 10000 |
| CC(=O)CCCCC(=O)Nc1nnc(CCCCc2nnc(NC(=O)CCCCC(C)=O)s2)s1 [Compound 72, N,N′-(5,5′-(butane-1,4-diyl)bis(1,3,4-thiadiazole-5,2-diyl))bis(6-oxoheptanamide)] | 100 to 500 |
| O=C(Nc1nnc(CCCCc2nnc(NC(=O)C3CCCC3)s2)s1)C1CCCC1 [Compound 95, N,N′-(5,5′-(butane-1,4-diyl)bis(1,3,4-thiadiazole-5,2-diyl))dicyclopentanecarboxamide] | 500 to 1000 |
| Cc1[nH]c2ccccc2c1CC(=O)Nc1nnc(CCCCc2nnc(NC(=O)Cc3c(C)[nH]c4ccccc34)s2)s1 [Compound 116, N,N′-(5,5′-(butane-1,4-diyl)bis(1,3,4-thiadiazole-5,2-diyl))bis(2-(2-methyl-1H-indol-3-yl)acetamide)] | < 100 |
| Cn1c(=O)c2c(ncn2CC(=O)Nc2nnc(CCCCc3nnc(NC(=O)Cn4cnc5c4c(=O)n(C)c(=O)n5C)s3)s2)n(C)c1=O [Compound 41] | 1000 to 10000 |
| CC(=O)Nc1nnc(CCCCc2nnc(NC(=O)c3ccc4[nH]c(C)nc4c3)s2)s1 [Compound 128, N-(5-(4-(5-acetamido-1,3,4-thiadiazol-2-yl)butyl)-1,3,4-thiadiazol-2-yl)-2-methyl-1H-benzo[d]imidazole-5-carboxamide] | < 100 |
| O=C(NCc1ccccc1)c1nnc(CCCCc2nnc(C(=O)NCc3ccccc3)s2)s1 [Compound 100] | 100 to 500 |
| O=C(CC1CCCCO1)Nc1nnc(CCS(=O)(=O)CCc2nnc(NC(=O)CC3CCCCO3)s2)s1 (stereo not drawn) [Compound 33, N,N′-(5,5′-(2,2′-sulfonylbis(ethane-2,1-diyl))bis(1,3,4-thiadiazole-5,2-diyl))bis(2-(tetrahydro-2H-pyran-2-yl)acetamide)] | 100 to 500 |
| O=C(Cc1cccc(C(F)(F)F)c1F)Nc1nnc(CCCCc2nnc(NC(=O)Cc3cccc(C(F)(F)F)c3F)s2)s1 [Compound 92] | 1000 to 10000 |
| COc1ccc(CCCC(=O)Nc2nnc(CCCCc3nnc(NC(=O)CCCc4ccc(OC)cc4)s3)s2)cc1 [Compound 75, N,N′-(5,5′-(butane-1,4-diyl)bis(1,3,4-thiadiazole-5,2-diyl))bis(4-(4-methoxyphenyl)butanamide)] | 100 to 500 |
| COc1ccccc1OCC(=O)Nc1nnc(CCCCc2nnc(NC(=O)COc3ccccc3OC)s2)s1 [Compound 74] | 100 to 500 |
| COc1ccc(CC(=O)Nc2nnc(CCCCc3nnc(NC(=O)Cc4ccc(OC)c(OC)c4)s3)s2)cc1OC [Compound 63, N,N′-(5,5′-(butane-1,4-diyl)bis(1,3,4-thiadiazole-5,2-diyl))bis(2-(3,4-dimethoxyphenyl)acetamide)] | < 100 |

| Structure (SMILES) | IC50 [nM] |
| --- | --- |
| O=C(Nc1nnc(CCCCc2nnc(NC(=O)C3CC3)s2)s1)C1CC1 [Compound 105] | 1000 to 10000 |
| CC(=O)NCCCC(=O)Nc1nnc(CCCCc2nnc(NC(=O)CCCNC(C)=O)s2)s1 [Compound 70] | 1000 to 10000 |
| O=C(Nc1nnc(CCCCc2nnc(NC(=O)c3cccc4ccccc34)s2)s1)c1cccc2ccccc12 [Compound 85, N,N′-(5,5′-(butane-1,4-diyl)bis(1,3,4-thiadiazole-5,2-diyl))di-1-naphthamide] | 100 to 500 |
| CC(=O)Nc1nnc(CCCCc2nnc(NC(=O)Cc3ccccc3)s2)s1 [Compound 98] | 100 to 500 |
| CC(C)(Oc1ccc(Cl)cc1)C(=O)Nc1nnc(CCCCc2nnc(NC(=O)C(C)(C)Oc3ccc(Cl)cc3)s2)s1 [Compound 109] | 1000 to 10000 |
| O=C(Cc1cccnc1)Nc1nnc(CCCCc2nnc(NC(=O)Cc3cccnc3)s2)s1 [Compound 28, N,N′-(5,5′-(butane-1,4-diyl)bis(1,3,4-thiadiazole-5,2-diyl))bis(2-(pyridin-3-yl)acetamide)] | < 100 |
| NCCCOc1ccc(CC(=O)Nc2nnc(CCS(=O)(=O)CCc3nnc(NC(=O)Cc4ccccc4)s3)s2)cc1 [Compound 36, 2-(4-(3-aminopropoxy)phenyl)-N-(5-(2-((2-(5-(2-phenylacetamido)-1,3,4-thiadiazol-2-yl)ethyl)sulfonyl)ethyl)-1,3,4-thiadiazol-2-yl)acetamide] | < 100 |
| Cc1nc2ccc(C(=O)Nc3nnc(CCSCCc4nnc(NC(=O)c5ccc6nc(C)[nH]c6c5)s4)s3)cc2[nH]1 [Compound 34, N,N′-(5,5′-(2,2′-thiobis(ethane-2,1-diyl))bis(1,3,4-thiadiazole-5,2-diyl))bis(2-methyl-1H-benzo[d]imidazole-6-carboxamide)] | < 100 |
| O=C(CCc1ccccc1Cl)Nc1nnc(CCCCc2nnc(NC(=O)CCc3ccccc3Cl)s2)s1 [Compound 91, N,N′-(5,5′-(butane-1,4-diyl)bis(1,3,4-thiadiazole-5,2-diyl))bis(3-(2-chlorophenyl)propanamide)] | 100 to 500 |
| O=C(CCc1ccccc1O)Nc1nnc(CCCCc2nnc(NC(=O)CCc3ccccc3O)s2)s1 [Compound 45] | < 100 |
| Nc1nnc(CCCCc2nnc(NC(=O)CCc3ccccc3O)s2)s1 [Compound 44] | 1000 to 10000 |
| O=C(CC1OC(=O)c2ccccc21)Nc1nnc(CCCCc2nnc(NC(=O)CC3OC(=O)c4ccccc43)s2)s1 (stereo not drawn) [Compound 93, N,N′-(5,5′-(butane-1,4-diyl)bis(1,3,4-thiadiazole-5,2-diyl))bis(2-(3-oxo-1,3-dihydroisobenzofuran-1-yl)acetamide)] | 100 to 500 |
| O=C(CCCC(=O)c1ccccc1)Nc1nnc(CCCCc2nnc(NC(=O)CCCC(=O)c3ccccc3)s2)s1 [Compound 40, N,N′-(5,5′-(butane-1,4-diyl)bis(1,3,4-thiadiazole-5,2-diyl))bis(5-oxo-5-phenylpentanamide)] | < 100 |
| CC(=O)Nc1nnc(CCCCc2nnc(NC(C)=O)s2)s1 [Compound 94, N,N′-(5,5′-(butane-1,4-diyl)bis(1,3,4-thiadiazole-5,2-diyl))diacetamide] | 500 to 1000 |
| COc1ccc(CC(=O)Nc2nnc(CCS(=O)(=O)CCc3nnc(NC(=O)Cc4ccc(OC)cc4)s3)s2)cc1 [Compound 31, N,N′-(5,5′-(2,2′-sulfonylbis(ethane-2,1-diyl))bis(1,3,4-thiadiazole-5,2-diyl))bis(2-(4-methoxyphenyl)acetamide)] | < 100 |
| CC(=O)Oc1cccc(C(=O)Nc2nnc(CCCCc3nnc(NC(=O)c4cccc(OC(C)=O)c4C)s3)s2)c1C [Compound 58] | 1000 to 10000 |
| O=C(Cc1ccccc1)Nc1nnc(CSCc2nnc(NC(=O)Cc3ccccc3)s2)s1 [Compound 32] | 1000 to 10000 |
| COc1ccc(CC(=O)Nc2nnc(CCS(=O)(=O)CCc3nnc(NC(=O)Cc4ccc(OC)c(OC)c4)s3)s2)cc1OC [Compound 30, N,N′-(5,5′-(2,2′-sulfonylbis(ethane-2,1-diyl))bis(1,3,4-thiadiazole-5,2-diyl))bis(2-(3,4-dimethoxyphenyl)acetamide)] | < 100 |
| O=C(Cc1ccccc1)Nc1nnc(CCS(=O)(=O)Cc2nnc(NC(=O)Cc3ccccc3)s2)s1 [Compound 56] | 100 to 500 |
